This note sets out measurements from the METLIN SMRT retention time set (Domingo-Almenara et al. 2019).

Molecules are shown by their SMILES.

A short description of the data set: gradient 5% acetonitrile 3 min, to 50% in 2 min, to 85% in 15 min, held 3 min, 100 µL/min. The following applies: column: Zorbax Extend-C18 2.1 x 50 mm; eluents: water / acetonitrile, 0.1% formic acid. A digest of the protocol: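 Over 3 months, pure standards in mixtures of ~100 molecules were run by HPLC coupled to a quadrupole time-of-flight mass spectrometer in positive and negative ionization mode. The column was a Zorbax Extend-C18 (2.1 × 50 mm, 1.8 μm) at 100 μL/min, eluted with water and acetonitrile each holding 0.1% formic acid, with 40 μL dead and 900 μL dwell volumes. Retention time was determined from adduct peaks chosen by software and checked manually.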
For the compound `O=C(COc1ccccc1F)NCCS(=O)(=O)N1CCN(c2ncccn2)CC1`, the RP-LC retention time was 716 s.

The compound `O=C(c1csc(S(=O)(=O)N2CCC(C(=O)N3CCOCC3)CC2)c1)N1CCOCC1` came in with an RP-LC retention time of 620 s.

Consider `CC1Oc2ccccc2N(Cc2nc(-c3ccc(Cl)c(F)c3)no2)C1=O` (stereo not given), for which the RP-LC retention time was 1190 s. Consider `COc1ccc(Cl)cc1NC(=O)N1CCC(COCc2ccccc2)CC1`, for which the RP-LC retention time was found to be 1120 s. `Cc1cccc(NC(=O)Cn2c(N)nc(C)cc2=O)c1` had an RP-LC retention time of 601 s. Regarding `Cc1cc(C)c(CN2CCC3(CC2)CC3c2noc(C)n2)c(C)c1` (stereo not given), the RP-LC retention time was found to be 655 s.

`Cc1cc(-c2ccc(S(=O)(=O)N3CCC(C(=O)NCc4ccco4)CC3)o2)n[nH]1` yielded an RP-LC retention time of 733 s.

`O=C(CCNc1c(-c2cccc(F)c2)nc2cnccn12)NCc1cc(F)cc(F)c1` displayed an RP-LC retention time of 769 s. In the case of `Cc1ccn2cc(-c3ccc(NC(=O)CCC4CCCCC4)cc3)nc2n1`, the RP-LC retention time was found to be 761 s. The compound `COc1ccc2c(c1)C=C(C(=O)N1CCN(Cc3ccc(OC)c(OC)c3OC)CC1)CO2` had an RP-LC retention time of 682 s. Consider `CCOc1ccc(S(=O)(=O)NCC(c2cn(C)c3ccccc23)N(C)C)cc1F` (stereo not given), for which the RP-LC retention time was determined as 603 s. `COc1ccc(CNC(=O)c2csc(-c3cn(C)c4ncccc34)n2)cc1` came in with an RP-LC retention time of 867 s. As to `CCc1cc(C(=O)Nc2ccc(OC)cc2C)nc2ccnn12`, the RP-LC retention time stood at 970 s. As to `COc1ccc(N2CC(c3noc(-c4cccc(OC(F)(F)F)c4)n3)CC2=O)cc1` (stereo not given), the RP-LC retention time turned out to be 1050 s. `CN(C)S(=O)(=O)c1ccc2c(c1)N(CC(=O)Nc1ccccn1)C(=O)C1CCCCN21` (stereo not given) gave an RP-LC retention time of 795 s. Then `CCOc1ccc(NC(=O)Cn2c(C)nc3onc(C)c3c2=O)cc1`, with 755 s; and `Cc1csc(-c2cc(S(=O)(=O)NCC3CC3)cn2CC(=O)N2CCCCC2)n1`, with 905 s. Then `CCNCc1cc(C(C)(C)C)c(O)c(C(C)(C)C)c1`, with 753 s; and `CCOc1cc(=O)n2c(c1C(=O)N1CCN(C3CCCCC3)CC1)CCCCC2`, with 590 s. In the case of `Cc1ccc(Cl)cc1NC(=O)N1CCC(n2cnc3c(C)cccc3c2=O)CC1` it was 911 s; in that of `CCc1ccc(-c2nc(-c3ccc4nnc(C)n4c3)no2)cc1`, 1080 s; in that of `CC(C)CCNC(=O)N1CCN(Cc2nc3cc(C(=O)N(C)C)ccc3o2)CC1`, 614 s. `CN(C)c1ccc(-c2nc3ccccc3s2)cc1` came in with an RP-LC retention time of 1130 s.

In turn, `O=C(Nc1ccc(F)c(Cl)c1)C1CCCN(S(=O)(=O)c2c[nH]c(C(=O)N3CCCC3)c2)C1` (stereo not given) yielded an RP-LC retention time of 876 s.

`Cc1ccc(C(=O)N2CCC(n3c(-c4ccco4)nc4cccnc43)C2)cc1C` (stereo not given) came in with an RP-LC retention time of 806 s. `COc1ccc(-c2csc(NC(=O)CS(=O)(=O)c3ccc(Cl)cc3)n2)cc1OC` showed an RP-LC retention time of 926 s. In the case of `COc1ccccc1NC(=O)c1oc2ccccc2c1NC(=O)c1c(F)cccc1Cl` it was 1180 s. Consider `COC(=O)c1ccc2c(=O)n(-c3ccc(C)c(F)c3)c(N3CCSC3)nc2c1`, for which the RP-LC retention time is 1150 s. In the case of `Cn1nccc1C(=O)NCc1ccc2c(c1)CCN2C(=O)c1ccccc1` it was 759 s.

For `CCn1cc(-c2ccncc2)cc1C(=O)NCc1ccc(Cl)cc1`, the RP-LC retention time was found to be 679 s. Compound `Cc1ccc(NC(=O)C2(C)Oc3cccnc3NC2=O)cc1C` (stereo not given) displayed an RP-LC retention time of 760 s. On to `COc1ccc2[nH]c(=O)c(CCC(=O)N3CCN(c4ccccn4)CC3)cc2c1`, for which the RP-LC retention time turned out to be 568 s. In turn, `O=C(NC1CC1)C1CCN(C(=O)c2ncn3c2COC(c2ccccc2)C3)CC1` (stereo not given) came in with an RP-LC retention time of 619 s.

Consider `COc1ccc(NC(=O)NCCn2c(C(F)(F)F)nc3cccnc32)cc1`, for which the RP-LC retention time amounted to 701 s. The compound `COc1ccc(C2(c3nc(-c4ccc(CNC(=O)C5CC5)s4)no3)CC2)cc1` yielded an RP-LC retention time of 955 s. Compound `CCN1C(=O)Cc2cc(C(=O)NC3CCCCC3)ccc21` showed an RP-LC retention time of 736 s. `COc1ccc(NC(=O)c2cnc3c(c2)c(=O)n(C)c(=O)n3-c2ccc(C)cc2)cc1`: the RP-LC retention time came out at 900 s. `CCCn1nnc(NCc2ccc(-c3cc(Cl)cc(Cl)c3)o2)n1` registered an RP-LC retention time of 1210 s.

`Cc1nc2cc(N3CCCC(C(=O)O)C3)cnc2nc1C` (stereo not given): the RP-LC retention time amounted to 604 s. Regarding `Cc1ccc(N2CC(c3noc(-c4cc(F)cc(F)c4)n3)CC2=O)cc1` (stereo not given), the RP-LC retention time turned out to be 1060 s. Take `O=C(NCC1(c2ccccc2)CCOCC1)c1cccc(C(F)(F)F)c1`: the RP-LC retention time turned out to be 852 s. Then `Cn1nc(-c2nc(C3CC3)no2)c2c1CCN(C(=O)c1ccc(OC(F)(F)F)cc1)C2`, with 937 s; and `CCC(=O)Nc1cccc(-c2nnc3n2CCC3)c1`, with 588 s; and `CCC(CO)NCc1ccc(-c2cc(Cl)ccc2Cl)o1` (stereo not given), with 693 s. `O=C(NCc1cccc2ccccc12)NCc1nnnn1-c1ccccc1` displayed an RP-LC retention time of 751 s. In turn, `CC(Oc1ccc(-c2cnc3ccccc3n2)cc1)C(=O)N(C)Cc1ccco1` (stereo not given) showed an RP-LC retention time of 620 s. Turning to `Cc1ccc(C2Cn3nnc(-c4nc(-c5ccsc5)no4)c3CO2)c(C)c1` (stereo not given), the RP-LC retention time came to 1220 s. In turn, `O=C(Nc1ccc(F)cc1)c1ccc(Cl)s1` yielded an RP-LC retention time of 908 s.

`CCn1cc(CCNC(=O)Nc2ccc(Br)cc2)c2cccnc21`: the RP-LC retention time came to 802 s. Turning to `CCc1ccc(NC(=O)N2CCc3nc(-c4ccc(F)cc4)ncc3C2)cc1`, the RP-LC retention time was found to be 1040 s.

Regarding `Cc1csc(-c2cc(S(=O)(=O)NCC(C)c3ccccc3)c(C)s2)n1` (stereo not given), the RP-LC retention time was found to be 1110 s. As for `O=C(CCS(=O)(=O)c1ccc(Cl)cc1)Nc1nnc(Cc2ccc3c(c2)OCO3)o1`, the RP-LC retention time was 726 s. `O=c1c2cnc3nc(-c4ccccc4Cl)nn3c2ccn1-c1ncn[nH]1` displayed an RP-LC retention time of 670 s. The compound `COc1ccc(S(=O)(=O)N2CCCC(C(=O)N3CCCC3)C2)cc1C` (stereo not given) showed an RP-LC retention time of 806 s. `COc1ccc(N2CCN(c3ccc4cc(S(=O)(=O)N5CCCCC5C)ccc4n3)CC2)cc1` (stereo not given): the RP-LC retention time came out at 991 s.

`O=C(c1cc(-c2ccncc2)n[nH]1)N1CCN(C(=O)c2ccc(Br)o2)CC1` had an RP-LC retention time of 590 s. The compound `Cc1ccc2c(c1)N(C(=O)Cn1c(=O)n(C3CC3)c(=O)c3nscc31)CCO2` had an RP-LC retention time of 773 s. On to `COc1cccc(-c2cn3ccn(-c4ccc(OC)c(Cl)c4)c(=O)c3n2)c1`, for which the RP-LC retention time turned out to be 850 s. In the case of `O=C(NC1CCCCCC1)c1nnc(-c2ccc(S(=O)(=O)N3CCOCC3)cc2)o1` it was 917 s; in that of `COc1cc(OC)cc(-c2noc(Cn3ccn4nc(-c5ccc(Cl)cc5)cc4c3=O)n2)c1`, 1130 s; in that of `CCC(C)(C)C(=O)NC1CCN(C2=NS(=O)(=O)C(c3ccc(C(C)C)cc3)=C2C)CC1`, 1020 s. In the case of `O=C(NCCC1=CCCCC1)C(=O)NCC1(CO)CC1`, the RP-LC retention time was 713 s.

As to `COc1cccc(-c2nnc(SCC(=O)NCc3ccco3)n2-c2ccccc2)c1`, the RP-LC retention time was 739 s. Compound `Cc1cc(NC(=O)CSc2cc(N3CCCC3)ncn2)ccc1Br` came in with an RP-LC retention time of 842 s. The compound `Cc1nc(-c2ccc(Cl)cc2)oc1COC(C)(C)C(=O)O` returned an RP-LC retention time of 909 s.

`CN1c2cc(C(=O)NCc3ccc(F)c(Cl)c3)ccc2C(=O)N2CCCCC21` (stereo not given) came in with an RP-LC retention time of 860 s. Consider `O=C(C1CCC1)N1CC(c2nc(-c3ccc(F)cc3)no2)C2(CCOCC2)C1` (stereo not given), for which the RP-LC retention time was found to be 891 s. Compound `CCN(CC)C(=O)c1ccc2c(c1)N(CC(=O)N1CCCC1)C(=O)C1CCCCN21` (stereo not given) had an RP-LC retention time of 753 s. Then `COc1ccc(NC(=O)Cn2cccc2-c2nnc(-c3ccccc3)o2)c(OC)c1`, with 993 s. With `CN1C(=O)c2cc(S(=O)(=O)NC3CCCCC3)ccc2Oc2cccnc21`, the RP-LC retention time turned out to be 929 s. Regarding `Cc1noc(C2CN(C(=O)c3ccc(F)c(F)c3)CC23CCOCC3)n1` (stereo not given), the RP-LC retention time amounted to 710 s. For `Cc1[nH]nc(-c2cc(S(=O)(=O)NCCc3ccccc3)c(C)s2)c1C`, the RP-LC retention time is 886 s.

In turn, `CCOc1nccnc1NC1CCN(C(=O)c2ccc(C)s2)CC1` yielded an RP-LC retention time of 726 s. `COc1cccc(-c2ccc(=O)n(Cc3nc(-c4ccccc4)no3)n2)c1` displayed an RP-LC retention time of 968 s. The compound `COc1ccc2cc(C(=O)NCCC(=O)NCCc3c[nH]c4ccccc34)[nH]c2c1` yielded an RP-LC retention time of 775 s. Compound `CCn1cc(S(=O)(=O)Nc2cc(F)ccc2C)c2cccnc21` returned an RP-LC retention time of 869 s.

`COc1ccc(-c2nnc(-c3ccc(Cl)c(S(=O)(=O)N4CCCCC4)c3)o2)cc1` showed an RP-LC retention time of 1100 s.

`Cc1cccc(NC(=O)N2CCC(n3cnc4cc(Cl)ccc4c3=O)CC2)c1` showed an RP-LC retention time of 877 s. As to `O=C([C@@H]1C[C@H](F)CN1S(=O)(=O)c1ccc(F)c(Cl)c1)N1CCc2ccccc2C1`, the RP-LC retention time is 997 s. Then `O=C(NCCCN1CCCC1=O)C1CCN(c2cncnc2N2CCOCC2)CC1`, with 535 s.
